Measurements taken from the supplement of paper PMC11208160.

test: recombinant barcode read abundance after kanamycin selection (control-corrected) (log10(CPM+1)); higher = more efficient recombination; sequences stand for … in AGTGCAGAGAAAATCGGCCAGTTTTCTCTGCCTGCAGTCCGCATGCCGT…ATTTATGCAGCGGACTGCCTTTCTCCCAAAGTGATAAACCGGACAGTATCATGGACCGGTTTTCCCGGTAATCCGTATTTGCAAGGTTGGTTTCACT; site = the 11-nt target
How it was run: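 IS621 bridge RNA target-binding loops were paired with targets in a pooled library tested in E. coli. After co-electroporation with a donor plasmid, cells were plated in two replicates on chloramphenicol/ampicillin LB agar (control) and on chloramphenicol/ampicillin/kanamycin carrying 0.1 mM IPTG. Barcodes at recombinant junctions were counted as counts per million, averaged and control-corrected to give recombination efficiency. Values are log10(CPM+1).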

Row | Sequence | recombinant barcode read abundance (log10)
1 | CATATTACATGGGTTCTAACCTGTTGCCTTG [CATATTACTAG_LTGcore_CA_RTGcore_CA] (site CATATTACTAG) (LTG core: CA, RTG core: CA) | 0.00594
2 | CATATTACTTGGGTTCTAACCTGTTGCCTAG [CATATTACTAG_LTGcore_CT_RTGcore_CT] (site CATATTACTAG) (LTG core: CT, RTG core: CT) | 0.22
3 | CATATTACTTGGGTTCTAACCTGTTGCCTAT [CATATTACTAG_LTGcore_CT_RTGcore_AT] (site CATATTACTAG) (LTG core: CT, RTG core: AT) | 0.0875
4 | CATATTACTTGGGTTCTAACCTGTTGCCTGC [CATATTACTAG_LTGcore_CT_RTGcore_GC] (site CATATTACTAG) (LTG core: CT, RTG core: GC) | 0.0956
5 | CATATTACTTGGGTTCTAACCTGTTGCCTGT [CATATTACTAG_LTGcore_CT_RTGcore_AC] (site CATATTACTAG) (LTG core: CT, RTG core: AC) | 0.00796
6 | CATATTAGCTGGGTTCTAACCTGTTGCCTGC [CATATTACTAG_LTGcore_GC_RTGcore_GC] (site CATATTACTAG) (LTG core: GC, RTG core: GC) | 0
7 | CATATTAGTTGGGTTCTAACCTGTTGCCTAC [CATATTACTAG_LTGcore_GT_RTGcore_GT] (site CATATTACTAG) (LTG core: GT, RTG core: GT) | 0.1
8 | CATATTAGTTGGGTTCTAACCTGTTGCCTAG [CATATTACTAG_LTGcore_GT_RTGcore_CT] (site CATATTACTAG) (LTG core: GT, RTG core: CT) | 0.209
9 | CATATTATCTGGGTTCTAACCTGTTGCCTGA [CATATTACTAG_LTGcore_TC_RTGcore_TC] (site CATATTACTAG) (LTG core: TC, RTG core: TC) | 0.0468
10 | CATATTATGTGGGTTCTAACCTGTTGCCTCA [CATATTACTAG_LTGcore_TG_RTGcore_TG] (site CATATTACTAG) (LTG core: TG, RTG core: TG) | 0.0228
11 | CGAGCCCCATGGGTTCTAACCTGTTGCTGAG [CGAGCCCCTCA_LTGcore_CA_RTGcore_CT] (site CGAGCCCCTCA) (LTG core: CA, RTG core: CT) | 1.27
12 | CGAGCCCCATGGGTTCTAACCTGTTGCTGTG [CGAGCCCCTCA_LTGcore_CA_RTGcore_CA] (site CGAGCCCCTCA) (LTG core: CA, RTG core: CA) | 0.111
13 | CGAGCCCCGTGGGTTCTAACCTGTTGCTGCG [CGAGCCCCTCA_LTGcore_CG_RTGcore_CG] (site CGAGCCCCTCA) (LTG core: CG, RTG core: CG) | 0.493
14 | CGAGCCCCTTGGGTTCTAACCTGTTGCTGAA [CGAGCCCCTCA_LTGcore_CT_RTGcore_TT] (site CGAGCCCCTCA) (LTG core: CT, RTG core: TT) | 0.691
15 | CGAGCCCCTTGGGTTCTAACCTGTTGCTGCC [CGAGCCCCTCA_LTGcore_CT_RTGcore_GG] (site CGAGCCCCTCA) (LTG core: CT, RTG core: GG) | 0.235
16 | CGAGCCCCTTGGGTTCTAACCTGTTGCTGCG [CGAGCCCCTCA_LTGcore_CT_RTGcore_CG] (site CGAGCCCCTCA) (LTG core: CT, RTG core: CG) | 0.339

Row | Sequence | recombinant barcode read abundance (log10)
17 | CGAGCCCCTTGGGTTCTAACCTGTTGCTGGA [CGAGCCCCTCA_LTGcore_CT_RTGcore_TC] (site CGAGCCCCTCA) (LTG core: CT, RTG core: TC) | 0.994
18 | CGAGCCCCTTGGGTTCTAACCTGTTGCTGTG [CGAGCCCCTCA_LTGcore_CT_RTGcore_CA] (site CGAGCCCCTCA) (LTG core: CT, RTG core: CA) | 0.176
19 | CGAGCCCGGTGGGTTCTAACCTGTTGCTGAG [CGAGCCCCTCA_LTGcore_GG_RTGcore_CT] (site CGAGCCCCTCA) (LTG core: GG, RTG core: CT) | 0.223
20 | CGAGCCCGTTGGGTTCTAACCTGTTGCTGAC [CGAGCCCCTCA_LTGcore_GT_RTGcore_GT] (site CGAGCCCCTCA) (LTG core: GT, RTG core: GT) | 0.156
21 | CGAGCCCTATGGGTTCTAACCTGTTGCTGTA [CGAGCCCCTCA_LTGcore_TA_RTGcore_TA] (site CGAGCCCCTCA) (LTG core: TA, RTG core: TA) | 0.083
22 | CGAGCCCTCTGGGTTCTAACCTGTTGCTGAG [CGAGCCCCTCA_LTGcore_TC_RTGcore_CT] (site CGAGCCCCTCA) (LTG core: TC, RTG core: CT) | 0.0668
23 | CGAGCCCTGTGGGTTCTAACCTGTTGCTGAG [CGAGCCCCTCA_LTGcore_TG_RTGcore_CT] (site CGAGCCCCTCA) (LTG core: TG, RTG core: CT) | 0.134
24 | CGAGCCCTTTGGGTTCTAACCTGTTGCTGAA [CGAGCCCCTCA_LTGcore_TT_RTGcore_TT] (site CGAGCCCCTCA) (LTG core: TT, RTG core: TT) | 0.0246
25 | CGCGCCCAATGGGTTCTAACCTGTTGCGGAG [CGCGCCCCTCC_LTGcore_AA_RTGcore_CT] (site CGCGCCCCTCC) (LTG core: AA, RTG core: CT) | 0.173
26 | CGCGCCCCTTGGGTTCTAACCTGTTGCGGCT [CGCGCCCCTCC_LTGcore_CT_RTGcore_AG] (site CGCGCCCCTCC) (LTG core: CT, RTG core: AG) | 0.0596
27 | CGCGCCCCTTGGGTTCTAACCTGTTGCGGGA [CGCGCCCCTCC_LTGcore_CT_RTGcore_TC] (site CGCGCCCCTCC) (LTG core: CT, RTG core: TC) | 0.0431
28 | CGCGCCCCTTGGGTTCTAACCTGTTGCGGTG [CGCGCCCCTCC_LTGcore_CT_RTGcore_CA] (site CGCGCCCCTCC) (LTG core: CT, RTG core: CA) | 0.382
29 | CGCGCCCTATGGGTTCTAACCTGTTGCGGTA [CGCGCCCCTCC_LTGcore_TA_RTGcore_TA] (site CGCGCCCCTCC) (LTG core: TA, RTG core: TA) | 0.0456
30 | CGGTCCCAATGGGTTCTAACCTGTTGCCAAG [CGGTCCCCTTG_LTGcore_AA_RTGcore_CT] (site CGGTCCCCTTG) (LTG core: AA, RTG core: CT) | 0.3
31 | CGGTCCCAATGGGTTCTAACCTGTTGCCATT [CGGTCCCCTTG_LTGcore_AA_RTGcore_AA] (site CGGTCCCCTTG) (LTG core: AA, RTG core: AA) | 0.0857
32 | CGGTCCCACTGGGTTCTAACCTGTTGCCAAG [CGGTCCCCTTG_LTGcore_AC_RTGcore_CT] (site CGGTCCCCTTG) (LTG core: AC, RTG core: CT) | 0.0364
